{
  "source": "paper PMC2796824",
  "about": "(Journal of biomolecular screening, 2009)",
  "key": {"MBP-MshC [1]": {"biological_target": "T1, MBP-MshC (Mycobacterium tuberculosis, UniProt P9WJM9)", "T1 sequence (P9WJM9 whole entry, looked up)": "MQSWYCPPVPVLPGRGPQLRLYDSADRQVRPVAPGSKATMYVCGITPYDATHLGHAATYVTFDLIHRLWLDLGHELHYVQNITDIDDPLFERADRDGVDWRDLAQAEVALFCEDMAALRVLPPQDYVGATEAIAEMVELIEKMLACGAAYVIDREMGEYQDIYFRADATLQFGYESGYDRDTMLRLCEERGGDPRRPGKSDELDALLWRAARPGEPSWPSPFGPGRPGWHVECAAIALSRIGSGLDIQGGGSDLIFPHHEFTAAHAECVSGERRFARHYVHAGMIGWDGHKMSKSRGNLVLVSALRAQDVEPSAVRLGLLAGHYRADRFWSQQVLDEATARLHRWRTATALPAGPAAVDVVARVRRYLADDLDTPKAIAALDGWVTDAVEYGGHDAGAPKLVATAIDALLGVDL", "assay": "Confirmatory assay: CGI production by fluorescence-detected HPLC", "type": "biochemical"}, "MBP-MshC [2]": {"biological_target": "T1, MBP-MshC", "assay": "MshC coupled luminescent assay", "type": "biochemical"}, "MBP-MshC [3]": {"biological_target": "T1, MBP-MshC", "assay": "Mode of inhibition of dequalinium", "type": "biochemical"}, "MBP-MshC [4]": {"biological_target": "T1, MBP-MshC", "assay": "Isothermal titration calorimetry with MBP-MshC", "type": "binding"}, "MBP": {"biological_target": "MBP (Escherichia coli, UniProt P0AEX9)", "assay": "Isothermal titration calorimetry with MBP tag alone", "type": "binding", "conditions": "ITC, 1-site model, 25 °C"}, "N[C@@H](CS)C(=O)O": {"test_system": "N[C@@H](CS)C(=O)O", "assay": "purified protein, by the assay type"}, "[5]": {"conditions": "IC50, quantitative CGI-HPLC confirmatory assay"}},
  "note": "“And” between values parts separate entries of the source, which are not always exact repeats. Equal entries are not always repeated.",
  "data": [
    {"compound": "Cc1cc(N)c2ccccc2[n+]1C", "note": "[1a, 1-methyl 4-aminoquinaldinium iodide]", "values": [
      {"measurement": "IC50", "setting": "MBP-MshC [1]; [5]", "result": 830, "unit": "µM"}
    ]},
    {"compound": "Nc1ncnc2c1ncn2[C@@H]1O[C@H](COS(=O)(=O)NC(=O)[C@@H](N)CS)[C@@H](O)[C@H]1O", "note": "[CysSA, 5′-O-[N-(L-cysteinyl)sulfamoyl] adenosine]", "values": [
      {"measurement": "IC50", "setting": "MBP-MshC [2]", "result": "0.24 ± 0.001", "unit": "µM"}
    ]},
    {"compound": "Cc1cc(N)c2ccccc2[n+]1CCCCCCCCCC[n+]1c(C)cc(N)c2ccccc21", "note": "[compound 1, dequalinium chloride]", "values": [
      {"measurement": "IC50", "setting": "MBP-MshC [1]; [5]", "result": "24 µM and ~24 µM"},
      {"measurement": "mode of inhibition", "setting": "MBP-MshC [3]; with respect to ATP (varied 31.3 to 4000 μM)", "result": "AT P-competitive inhibitor"},
      {"measurement": "mode of inhibition", "setting": "MBP-MshC [3]; with respect to GI (varied 34-1100 μM)", "result": "synergy"},
      {"measurement": "Kd", "setting": "MBP-MshC [4]", "result": "7.1 ± 0.8", "unit": "µM"},
      {"measurement": "Kd", "setting": "MBP", "result": "8.5 µM and 7 to 8.5 µM"}
    ]},
    {"compound": "C[n+]1ccc(Nc2ccc(NC(=O)c3ccc(Nc4cc[n+](C)c5ccc([N+](=O)[O-])cc45)cc3[N+](=O)[O-])cc2)cc1", "note": "[compound 2]", "values": [
      {"measurement": "IC50", "setting": "MBP-MshC [1]; quantitative CGI-HPLC confirmatory assay", "result": "~500", "unit": "µM"}
    ]},
    {"compound": "MBP-MshC (Mycobacterium tuberculosis H37Rv)", "values": [
      {"measurement": "Km", "setting": "N[C@@H](CS)C(=O)O", "result": "140 ± 40", "unit": "µM"},
      {"measurement": "Vmax", "setting": "N[C@@H](CS)C(=O)O", "result": "85 ± 7", "unit": "nmol/min/mg"}
    ]}
  ]
}
